Reference: ChEMBL document CHEMBL1151643, “The Identification of a Major Phytotoxic Component from Alternaria macrospora as -Dehydrocurvularin” (J Nat Prod, 1985)
Converted amounts (≈) assume the structure as drawn.

What was measured:
Format in all cases: organism-based
Gossypium hirsutum [1] = test: Phytotoxicity against Gossypium hirsutum assessed as appearance of lesions at 10 ug applied to adaxial surface of leaf for 12 hrs measured after 16 hrs; conditions: in vivo, topical_or_ocular
[2] = Phytotoxicity against Cucumis sativus protoplast after 3 hrs by fluorescein diacetate staining; conditions: Cucumis sativus protoplasts, read-out: LD50
Gossypium hirsutum [3] = test: Phytotoxicity against Gossypium hirsutum assessed as appearance of lesions at 0.5 ug applied to adaxial surface of leaf for 12 hrs measured after 4 days; conditions: in vivo, topical_or_ocular

CC1CCC/C=C/C(=O)c2c(O)cc(O)cc2CC(=O)O1 (centres undefined)
Activity (Gossypium hirsutum [1]): Toxic
CC50 at 3 h [2]: 15 µg/mL (≈ 51.7 µM)
Activity (Gossypium hirsutum [3]): Toxic

CC1CCCCCC(=O)c2c(O)cc(O)cc2CC(=O)O1 (centres undefined) [CURVULARIN]
CC50 at 3 h [2]: 21 µg/mL (≈ 71.8 µM)
